Experimental data taken from article PMC11396751, “Design, Synthesis, and Anticancer Activity of Novel Enmein-Type Diterpenoid Derivatives Targeting the PI3K/Akt/mTOR Signaling Pathway” (Molecules, 2024).

Assays:
[1] = tested on: A549 cells; assay: Apoptosis rate, Annexin V-FITC/PI, flow cytometry; type: cell-based, human; conditions: 48 h
Procedure: To further confirm the capacity of 7h to induce apoptosis in cancer cells, A549 cells were treated with 7h, detected using Annexin V-FITC/PI staining, and the apoptosis rate was detected by flow cytometry.
A549 cells were inoculated into 6-well plates and attached via cell adhesion. Then, gradient concentrations (0, 2, 4, and 8 µM) of 7h was added and co-incubated for 48 h. The cells were gathered and prepared as cell suspensions according to the method described in Section 4.2.3. The cell suspension was treated with Annexin V-FITC/PI staining solution, and the data were gathered using a flow cytometer (FACS Calibur, BD, Milpitas, CA, USA) and analyzed using Flow Jo software. Three attempts were performed for each treatment to eliminate experimental bias.

[2] = tested on: A549 cells; assay: Cell cycle analysis, PI/RNase, flow cytometry; type: cell-based, human; conditions: 48 h
Procedure: Cell cycle regulation is an essential process in maintaining normal bodily functions and is often disturbed in cancer cells. The inducement of cell cycle arrest is considered a key avenue for targeted cancer therapy. As a novel enmein-type diterpenoid derivative with remarkable anti-proliferative effects against A549 cells, 7h may have the ability to induce cell cycle arrest. Therefore, A549 cells were treated with 7h, stained with PI/RNase solution, and analyzed for their cell cycle distribution by flow cytometry.
A549 cells were inoculated into 24-well plates and attached via cell adhesion. Then, gradient concentrations (0, 2, 4, and 8 µM) of 7h were added and the cells were co-incubated for 48 h. The cells were cleaned with ice-cold phosphate buffer solution (PBS), digested with trypsin, collected, and prepared as a cell suspension. The cell suspension was treated with PI/RNase staining solution, the data were gathered using a flow cytometer (FACS Calibur, BD, Milpitas, CA, USA), and the cell cycle distribution was analyzed using Flow Jo software. Three attempts were performed for each treatment to eliminate experimental bias.

[3] = tested on: L-02 cells; assay: MTT anti-proliferative assay, normal L-02 cells; type: cell-based; conditions: means ± SD of three experiments
Procedure: A series of novel enmein-type diterpenoid derivatives, 5a–m, were synthesized by introducing a side chain containing a carbamate moiety at the C-6 position of compound 4. The anticancer activities of 5a–m were tested against three human cancer cell lines and one human normal cell line by MTT assay.
Human non-small cell lung cancer cell lines (A549), human liver cancer cell lines (HepG2), human breast cancer cell lines (MCF-7), and human normal cell lines (L-02) were purchased from the cell bank of the Chinese Academy of Sciences. All cells were placed in RPMI-1640 medium (added 10% fetal bovine serum, […]) and cultured in an aseptic environment with 5% CO2 at 37 °C.
All derivatives were evaluated for their anti-proliferative activities against three cancer cell lines and one normal cell line by MTT assay. The cells in the logarithmic growth phase were inoculated into 96-well plates (3 × 10^3 cells/well) and incubated for 48 h in a sterile environment with 5% CO2 at 37 °C to make them attach via cell adhesion; then, the cells were co-incubated with target compounds for 48 h. After that, MTT solution (10 µL/well) was added to the cell culture medium to continue incubation for 4 h, following which the medium was replaced with DMSO (150 µL/well). The absorbance values at 490 nm were determined using an enzyme meter (Safire 2, Tecan, Männedorf, Switzerland) and further converted to half-inhibitory concentration values of these compounds.

[4] = A549, highest concentration (8 µM per Figure 4b)

Structure (SMILES): C=C1C(=O)C23C(=O)OC45CCC(C)(C)C6C(OC(=O)CCC(=O)N7CCC(c8noc9cc(F)ccc89)CC7)OCC64C2CCC1C3O5 (single isomer, unassigned; ent-6) [Compound 7h, ent-6β,14α-Dihydroxy-(1,7–1,14)-epoxy-7,15-dioxo-6,20-hemiketal-6,7-seco-16-kaurene-6β-yl 4-(4-(6-fluorobenzo[d]isoxazol-3-yl)piperidin-1-yl)-4-oxobutanoate]
- late apoptosis [1, 4]: 41.8%
- percentage of total apoptosis [1, 4]: 58.00%
- percentage of total apoptosis ([1]; A549, lowest concentration (2 µM per Figure 4b)): 5.38%
- cells in G0/G1 phase ([2]; A549, 2 µM): 62.99%
- cells in G2/M phase ([2]; A549, 2 µM): 16.21%
- cells in S phase ([2]; A549, 2 µM): 20.80%
- cells in G0/G1 phase ([2]; A549, 4 µM): 71.04%
- cells in G2/M phase ([2]; A549, 4 µM): 17.63%
- cells in S phase ([2]; A549, 4 µM): 11.33%
- cells in G0/G1 phase ([2]; A549, 8 µM): 89.87%
- cells in G2/M phase ([2]; A549, 8 µM): 3.93%
- cells in S phase ([2]; A549, 8 µM): 6.10%
- IC50 ([3]; Homo sapiens, L02, 48 h): > 100 µM
- IC50 ([3]; human normal cells, 48 h): > 50 µM
